Laboratory results reported in publication PMC9544171, “Glucose‐dependent insulinotropic polypeptide receptor antagonist treatment causes a reduction in weight gain in ovariectomised high fat diet‐fed mice” (British Journal of Pharmacology, 2022).
Where a SMILES comes first, the peptide text is derived from it. The star is where a group is joined. C16 diacid = O=C(O)CCCCCCCCCCCCCCC(=O)*

What was measured:
mouse GLP‐1 receptor = target: T1, mouse GLP‐1 receptor (Mus musculus, UniProt O35659); assay: cAMP accumulation, agonism in transfected COS‐7 cells; format: cell-based; conditions: increasing concentrations, COS‐7, n = 5
T1 construct: host or cells: COS-7
T1 sequence (O35659 22-463): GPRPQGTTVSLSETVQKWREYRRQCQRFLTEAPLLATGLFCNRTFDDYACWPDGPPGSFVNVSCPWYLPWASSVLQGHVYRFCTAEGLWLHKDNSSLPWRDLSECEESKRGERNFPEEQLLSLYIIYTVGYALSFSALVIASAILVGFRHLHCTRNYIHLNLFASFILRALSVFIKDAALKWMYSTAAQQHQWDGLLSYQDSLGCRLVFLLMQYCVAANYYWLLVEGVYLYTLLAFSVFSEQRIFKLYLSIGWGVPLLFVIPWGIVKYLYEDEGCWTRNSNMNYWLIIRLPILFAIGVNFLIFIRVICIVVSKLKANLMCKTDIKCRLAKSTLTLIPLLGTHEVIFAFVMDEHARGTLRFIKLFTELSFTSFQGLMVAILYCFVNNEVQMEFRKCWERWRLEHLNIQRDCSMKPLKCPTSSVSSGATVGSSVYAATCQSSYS
Method: COS‐7 cells were cultured at 10% CO2 and 37°C in Dulbecco's Modified Eagle Medium 1885 supplemented with 10% foetal bovine serum, 2‐mM glutamine, 180‐units ml^−1 penicillin and 45‐g·ml^−1 streptomycin. […] A second set of cells was transiently transfected with either mouse GLP‐1 or GLP‐2 receptor. Following the day after transfection, the cells were seeded in white 96‐well plates with a density of 35.000 cells per well. The next day the assay was initiated by washing the cells with HEPES buffered saline (HBS) followed by an incubation step with HBS and 1‐mM 3‐isobutyl‐1‐methylxanthine for 30 min at 37°C. For agonist studies, the ligands were then added and incubated for an additional 30 min at 37°C. To test for antagonistic properties, the cells were first preincubated for 10 min with the antagonist with subsequent addition of the agonist and incubated for an additional 20 min. The HitHunter® cAMP assay (Eurofins DiscoverX, Fremont, USA) was carried out according to the manufacturer's protocol. Luminescence was measured by PerkinElmer™ Envision 2014 Multilabel Reader.
COS‐7 cells were transiently transfected with (a) mouse GLP1‐R and (b) mouse GLP‐2 R and assayed for cAMP accumulation. […] Data are shown as mean ± SE from n = 5 independent experiments

Female C57Bl6/J mice = assay: Intraperitoneal glucose tolerance test, inhibition of exogenous GIP; format: in vivo, mouse
Method: To assess the biological activity of mGIPAnt‐1, we performed an intraperitoneal glucose tolerance test. Mice were fasted for 4 h and given either mGIPAnt‐1 ([…]; s.c.) or vehicle at t = −90 min. Group sizes were as follows:‐ Vehicle + Vehicle, n = 10, Vehicle + GIP, n = 12 and mGIPAnt‐1 + GIP, n = 8. Varying group numbers were due to unsuccessful administration of one of the four compounds as confirmed by measurements of plasma concentrations. At t = −10 all mice were given an intraperitoneal (i.p.) injection with dipeptidyl peptidase‐4 (DPP‐4) inhibitor valine pyrrolidide followed by s.c. injection of either 25 nmol·kg^−1 GIP (Synthetic mouse GIP(1‐42) or vehicle. At t = 0 min, mice received an i.p. injection with 0.5‐g·kg^−1 glucose. Blood glucose was measured from the tail vein using a hand‐held glucometer (Accu‐Chek Mobile, Roche, Basel, Switzerland) at t = 0, 10, 30, 45, 60, 120 and 180 min. Retro‐orbital blood samples (50 μl) were taken using EDTA coated glass capillaries (Vitrex, Vasekær, Denmark) at t = 0, 15, 30 and 60, 120 and 180 min and centrifuged at 3500g, 20 min, 4°C. Plasma was transferred into Eppendorf tubes on dry ice and stored at −20°C for later insulin measurements.
To facilitate comparisons of assay outputs (cAMP assays), the results (of duplicate measurements) were normalized, with the response to 10 pM of GIP(1‐42) set as 100%. All ligand concentrations are reported as log‐transformed. The IC50 log values can be found in Figure 1. In Figure 3c, we have subtracted glucose levels from baseline to show the net differences in glucose levels in our different treatment groups.

[1] = test system: Female ovariectomised C57Bl6/J mice; assay: HFD study in ovariectomised mice, body weight and composition, 8 weeks; format: in vivo, mouse
Method: Prior to bilateral ovariectomy surgery and once daily for 48 h following, mice received analgesics through s.c. injection of carprofen (Rimadyl; 5 mg·kg^−1). Anaesthesia was induced in an induction chamber with 5% isoflurane and maintained with 2% isoflurane through a nose cone during the procedure. Proper respiration was ensured with a flow of oxygen through the nose cone and body temperature was maintained at 37°C by placing the mice on a heating pad. Mice were placed in a prone position on a sterile surgery pad and the area of incision was shaved and sterilized with 70% ethanol. Two dorsal‐lateral incisions were made and the ovary and attached fat pad were individually pulled out of the abdominal cavity. The fallopian tubes were ligated and the ovaries were dissected, then the fat pad was carefully placed back in the abdominal cavity. The skin incision was closed using wound clips (Reflex, Alzet, Cupertino, CA, USA). In half of the animals, a microtransponder (Datamars, Lamone, Switzerland) was inserted and animals were placed in an HM‐2 cage with the intention to measure food intake (MBrose, Faaborg, Denmark) and left to recover and acclimatize for a week. The remaining animals were placed back in their home cages to recover for a week. The division of mice into HM‐2 cages and home cages was randomized. Uterine atrophy was confirmed in all mice upon termination of the study, indicating successful ovariectomy.
(§1) A week after ovariectomy, at 10 weeks of age, animals were randomized into groups and placed on a 60 kcal% HFD (HFD, D12492, Research Diets, New Brunswick, NJ, USA) or a control diet (10 kcal% fat, D12450J, Research Diets) for 8 weeks. Group sizes were as follows: Vehicle/control diet, n = 12; mGIPAnt‐1/control diet, n = 12; Vehicle/HFD, n = 11; mGIPAnt‐1/HFD, n = 12. The reduction of animal numbers in group Vehicle/HFD was due to unexpected loss of an animal. Animals received a daily s.c. injection at 4:30 PM with mGIPAnt‐1 (300‐nmol·kg^−1) or vehicle. Body weight and body composition were assessed weekly (LF90II body composition analyzer, Bruker, Billerica, MA, USA). On the final experimental day, animals were anaesthetized with an intraperitoneal injection of 90 mg·kg^−1 ketamine and 10‐mg·kg^−1 xylazine. The microchip was quickly removed from HM‐2 cage animals and a final body composition measurement was performed on all animals. A terminal retro‐orbital blood sample was taken, mice were killed through cervical dislocation and tissues were quickly dissected and weighed.

[2] = test system: Female ovariectomised C57Bl6/J mice; assay: Terminal plasma adiponectin, triglyceride and glycerol; format: in vivo, mouse; conditions: 8 weeks of 300 nmol·kg−1 s.c. daily
From the text: as §1
Insulin levels in intraperitoneal glucose tolerance test and oral glucose tolerance test plasma samples were measured using a mouse insulin ELISA (catalogue no. 10‐1247‐10; Mercodia AB, Uppsala, Sweden). Adiponectin levels in terminal plasma samples were measured using a mouse adiponectin ELISA kit (catalogue no. 80569, Crystal Chem, Elk Grove Village, IL, USA). Adiponectin samples were carefully diluted in kit‐specific assay buffer. The manufacturer's instructions were followed closely.
Triglyceride and free glycerol levels in terminal plasma samples were determined using a triglyceride and free glycerol kit (TR0100‐1KT, Sigma‐Aldrich, St. Louis, MO, USA).

CC[C@H](C)[C@H](NC(=O)[C@H](CO)NC(=O)[C@H](Cc1ccc(O)cc1)NC(=O)[C@H](CC(=O)O)NC(=O)[C@H](CO)NC(=O)[C@@H](NC(=O)[C@H](Cc1ccccc1)NC(=O)[C@@H](NC(=O)CNC(=O)[C@@H](N)CCC(=O)O)[C@@H](C)O)[C@@H](C)CC)C(=O)N[C@@H](C)C(=O)N[C@@H](CCSC)C(=O)N[C@@H](CC(=O)O)C(=O)N[C@@H](CCCCN)C(=O)N[C@H](C(=O)N[C@@H](CCCCNC(=O)CCCCCCCCCCCCCCC(=O)O)C(=O)N[C@@H](CCC(N)=O)C(=O)N[C@@H](CCC(N)=O)C(=O)N[C@@H](CC(=O)O)C(=O)N[C@@H](Cc1ccccc1)C(=O)N[C@H](C(=O)N[C@@H](CC(N)=O)C(=O)N[C@@H](Cc1c[nH]c2ccccc12)C(=O)N[C@@H](CC(C)C)C(=O)N[C@@H](CC(C)C)C(=O)N[C@@H](C)C(=O)N[C@@H](CCC(N)=O)C(=O)N[C@@H](CCCCN)C(=O)NCC(=O)N[C@@H](CCCCN)C(=O)N[C@@H](CCCCN)C(=O)N[C@@H](CC(N)=O)C(=O)N[C@@H](CC(=O)O)C(=O)N[C@@H](Cc1c[nH]c2ccccc12)C(=O)N[C@@H](CCCCN)C(=O)N[C@@H](Cc1c[nH]cn1)C(=O)N[C@@H](CC(N)=O)C(=O)O)C(C)C)[C@@H](C)CC [mGIPAnt‐1] (H-EGTFISDYSIAMDKIK(C16 diacid)QQDFVNWLLAQKGKKNDWKHN-OH)
activation of mouse GLP‐1 receptor (cAMP) (mouse GLP‐1 receptor): does not induce activation
fasting (baseline) blood glucose at t = 0 of IPGTT (Female C57Bl6/J mice; mGIPAnt‐1 25 μmol·kg−1 s.c. at t = −90 min, 4 h fasted mice, versus the other two groups): significant decrease in fasting blood glucose levels
baseline‐subtracted glucose curve during IPGTT (Female C57Bl6/J mice; mGIPAnt‐1 25 μmol·kg−1 s.c. t = −90 min, GIP 25 nmol·kg−1 s.c. and val‐pyr t = −10 min, glucose 0.5 g·kg−1 i.p., n = 8–12): did not differ
glucose levels relative to baseline late in IPGTT (Female C57Bl6/J mice; t = 120 and 180 min, same dosing as glucose curve): glucose levels do not drop below baseline
final lean body mass ([1]; 300 nmol·kg−1 s.c. daily, 8 weeks): not affected
body weight, HFD ([1]; 300 nmol·kg−1 s.c. daily, 8 weeks, 60 kcal% HFD, versus Vehicle/HFD, n = 11–12): body weight in the control, HFD group was significantly higher compared to the mGIPAnt‐1/HFD group
absolute body weight, control diet ([1]; 300 nmol·kg−1 s.c. daily, 8 weeks, control diet, n = 12): not affected
total body weight gain, overall treatment effect ([1]; 300 nmol·kg−1 s.c. daily, 8 weeks, two‐way ANOVA): reducing total body weight gain
body fat percentage, HFD ([1]; at 6 and 8 weeks, 300 nmol·kg−1 s.c. daily, versus Control/HFD, n = 6): Control/HFD animals significantly increased body fat percentage compared to mGIPAnt‐1/HFD animals
BAT weight ([1]; terminal): not affected
eWAT weight, control diet ([1]; terminal): did not affect
iWAT weight, control diet ([1]; terminal): did not affect
liver weight ([1]; terminal): not affected
eWAT weight, HFD ([1]; terminal, versus Vehicle/HFD): reduced
iWAT weight, HFD ([1]; terminal, versus Vehicle/HFD): reduced
terminal plasma glycerol [2]: did not significantly affect
terminal plasma triglyceride [2]: did not significantly affect
terminal plasma adiponectin ([2]; ELISA): did not significantly affect
terminal plasma glycerol, HFD versus Vehicle/HFD ([2]; did not reach significance): trend towards increased glycerol levels
